ChEMBL document CHEMBL3244016, “Isomers of erythro-5-(1-hydroxy-2-isopropylaminobutyl)-8-hydroxycarbostyril, a new bronchodilator” (J Med Chem, 1977)

Assays:
Canis familiaris [1] = test: Increase in heart rate in iv dosed anesthetized mongrel dog; assay type: organism-based, Canis lupus familiaris; settings: in vivo
Canis familiaris [2] = test: Bronchodilatory activity in iv dosed mongrel dog assessed as inhibition of histamine-induced bronchospasm administered 1 min prior to histamine challenge relative to l-isoproterenol; assay type: functional, Canis lupus familiaris
Canis familiaris [3] = test: Increase in heart rate in iv dosed anesthetized mongrel dog relative to l-isoproterenol; assay type: organism-based, Canis lupus familiaris; settings: in vivo
Canis familiaris [4] = species on record: Canis familiaris; test: Separation ratio of ED25 for increase in heart rate in mongrel dog to ED50 for inhibition of bronchoconstriction in mongrel dog; design: species or system Canis lupus familiaris
Canis familiaris [5] = test: Bronchodilatory activity in iv dosed mongrel dog assessed as inhibition of histamine-induced bronchospasm administered 1 min prior to histamine challenge; assay type: functional; settings: Canis lupus familiaris

| SMILES | ED14.5 (Canis familiaris [1]) | Ratio ED50 (Canis familiaris [2]) | Ratio (Canis familiaris [3]) | Ratio (Canis familiaris [4]) | ED19.5 (Canis familiaris [1]) | ED25 (Canis familiaris [1]) | ED50 (Canis familiaris [5]) |
| --- | --- | --- | --- | --- | --- | --- | --- |
| CC[C@@H](NC(C)C)[C@@H](O)c1ccc(O)c2[nH]c(=O)ccc12 | 3000 µg/kg | 18500 | – | – | – | – | – |
| CC[C@@H](NC(C)C)[C@H](O)c1ccc(O)c2[nH]c(=O)ccc12 | – | 4110 | 7560 | 1.84 | – | – | – |
| CC[C@H](NC(C)C)[C@@H](O)c1ccc(O)c2[nH]c(=O)ccc12 | – | 566 | 9550 | 16.9 | – | – | – |
| CCC(NC(C)C)C(O)c1ccc(O)c2[nH]c(=O)ccc12 (racemic; erythro) [PROCATEROL] | – | 2.03 | 50.5 | 24.9 | – | – | – |
| CCC(NC(C)C)C(O)c1ccc(O)c2[nH]c(=O)ccc12 (racemic; threo) [PROCATEROL] | – | 148 | – | – | 300 µg/kg | – | – |
| CCC(NC(C)C)C(O)c1ccc(O)c2[nH]c(=O)ccc12 (stereo in doubt) [PROCATEROL] | – | 1.41 | 33.2 | 23.5 | – | – | – |
| CC(C)NCC(O)c1ccc(O)c(O)c1 (stereo not drawn) [ISOPROTERENOL] | – | – | – | – | – | 0.019 µg/kg | 0.069 µg/kg |
